For the molecule `CN(C)CCCCOc1ccc(N(C)S(=O)(=O)c2ccc(C(F)(F)F)cc2)cc1` [Example 14.1, N-[4-(4-Dimethylamino-butoxy)-phenyl]-N-methyl-4-trifluoromethyl-benzenesulfonamide], the melting point lay within 151 to 153 °C.

The values are drawn from US6683201B2, “Analine derivatives as OSC inhibitors” (Hoffmann-La Roche Inc., priority 2000, dated 2004).
